PubChem BioAssay (NCI)
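Briefly, cells in 96-well plates were exposed to five compound concentrations for 48 h, and endpoints were estimated by linear interpolation. GI50 = concentration required for 50% inhibition of growth. The concentration for full growth arrest is given as TGI.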

Columns and labels:
Experiment in all cases: inhibition of tumour cell growth, NCI panel, 48 h
[1] = tested on: OVCAR-3 ovarian
[2] = tested on: SK-MEL-5 melanoma
[3] = tested on: LOX IMVI melanoma
[4] = tested on: OVCAR-4 ovarian
[5] = tested on: HCC-2998 colon
[6] = tested on: SR leukemia
[7] = tested on: HL-60(TB) leukemia
[8] = tested on: HCT-15 colon
[9] = tested on: UACC-62 melanoma
[10] = tested on: NCI-H460 lung
[11] = tested on: OVCAR-8 ovarian
[12] = tested on: SK-MEL-28 melanoma
[13] = tested on: OVCAR-5 ovarian
[14] = tested on: KM12 colon
[15] = tested on: CCRF-CEM leukemia
[16] = tested on: NCI-H522 lung
[17] = tested on: COLO 205 colon
[18] = tested on: HOP-92 NSCLC
[19] = tested on: HT29 colon
[20] = tested on: IGROV1 ovarian
[21] = tested on: SF-268 CNS
[22] = tested on: M14 melanoma
[23] = tested on: CAKI-1 renal
[24] = tested on: DU-145 prostate
[25] = tested on: SF-295 CNS
[26] = tested on: MDA-MB-435
[27] = tested on: NCI-H226 lung
[28] = tested on: SW-620 colon
[29] = tested on: HOP-62 NSCLC

C#C[C@]1(O)CC[C@H]2[C@@H]3CC=C4c5sc(Nc6cccc(Cl)n6)nc5CC[C@]4(C)[C@H]3CC[C@@]21C
GI50 [1]: 1450 nM
TGI [1]: 3130 nM
GI50 [2]: 1650 nM
TGI [2]: 3120 nM
GI50 [3]: 705 nM
TGI [3]: 1980 nM
GI50 [4]: 2110 nM
TGI [4]: 8600 nM
GI50 [5]: 1880 nM
TGI [5]: 4100 nM
GI50 [6]: 273 nM
TGI [6]: 1020 nM
GI50 [7]: 335 nM
TGI [7]: 1570 nM
GI50 [8]: 672 nM
TGI [8]: 2440 nM
GI50 [9]: 389 nM
TGI [9]: 1500 nM
GI50 [10]: 672 nM
TGI [10]: 1930 nM
GI50 [11]: 1460 nM
TGI [11]: 3630 nM
GI50 [12]: 226 nM
TGI [12]: 597 nM
GI50 [13]: 1560 nM
TGI [13]: 3350 nM
GI50 [14]: 1250 nM
TGI [14]: 3150 nM
GI50 [15]: 430 nM
TGI [15]: > 21100 nM
GI50 [16]: 1710 nM
TGI [16]: 3610 nM
GI50 [17]: 1690 nM
TGI [17]: 3400 nM
GI50 [18]: 1200 nM
TGI [18]: 2660 nM
GI50 [19]: 1430 nM
TGI [19]: 3600 nM
GI50 [20]: 1610 nM
TGI [20]: 4470 nM
GI50 [21]: 1540 nM
TGI [21]: 4650 nM
GI50 [22]: 491 nM
TGI [22]: 1780 nM
GI50 [23]: 819 nM
TGI [23]: 2450 nM
GI50 [24]: 2170 nM
TGI [24]: 9200 nM
GI50 [25]: 205 nM
TGI [25]: 529 nM
GI50 [26]: 1010 nM
TGI [26]: 2730 nM
GI50 [27]: 1600 nM
TGI [27]: 4130 nM
GI50 [28]: 1190 nM
TGI [28]: 2570 nM
GI50 [29]: 796 nM
TGI [29]: 2230 nM
